# Assay results published in PubChem BioAssay AID1259407 (Chemical Carcinogenesis Research Information System (CCRIS), 2018).
# Calls of active or inactive are those of the source. How the calls were made is not given here.
# Test system: CCRIS mutagenicity, Ames/micronucleus/aberration tests
# Assay: CCRIS mutagenicity studies
# Text: The CCRIS database contains chemical records with carcinogenicity, mutagenicity, tumor promotion, and tumor inhibition test results. It was developed by the National Cancer Institute (NCI). Data are derived from studies cited in primary journals, current awareness tools, NCI reports, and other sources. Test results have been reviewed by experts in carcinogenesis and mutagenesis.
# CCRIS provides historical information from the years 1985 - 2011. It is no longer updated.
# This is an archive assay for CCRIS mutagenicity studies.
# [1] = Test System: AMES SALMONELLA TYPHIMURIUM, Strain/Indicator: TA98, Metabolic Activation: NONE, Method: PREINCUBATION
# [2] = Test System: AMES SALMONELLA TYPHIMURIUM, Strain/Indicator: TA100, Metabolic Activation: NONE, Method: PREINCUBATION
# [3] = Test System: E. COLI, Strain/Indicator: WP2 UVRA, Metabolic Activation: NONE, Method: PREINCUBATION
# [4] = Test System: AMES SALMONELLA TYPHIMURIUM, Strain/Indicator: TA104, Metabolic Activation: NONE, Method: PREINCUBATION
smiles,measurement,setting,value
COc1ccc2c(CBr)cc(=O)oc2c1,mutagenic call,[1],inactive; negative
same,mutagenic call,"Test System: AMES SALMONELLA TYPHIMURIUM, Strain/Indicator: TA98, Metabolic Activation: RAT, LIVER, S-9, PCB, Method: PREINCUBATION",inactive; negative
same,mutagenic call,[2],inactive; negative
same,mutagenic call,"Test System: AMES SALMONELLA TYPHIMURIUM, Strain/Indicator: TA100, Metabolic Activation: RAT, LIVER, S-9, PCB, Method: PREINCUBATION",inactive; negative
same,mutagenic call,[3],inactive; negative
CCC(C)=O,mutagenic call,"Test System: AMES SALMONELLA TYPHIMURIUM, Strain/Indicator: TA97, Metabolic Activation: HAMSTER, LIVER, S-9, AROCLOR 1254 (10 OR 30%), Method: PREINCUBATION",inactive; negative
same,mutagenic call,"Test System: AMES SALMONELLA TYPHIMURIUM, Strain/Indicator: TA97, Metabolic Activation: NONE, Method: PREINCUBATION",inactive; negative
same,mutagenic call,"Test System: AMES SALMONELLA TYPHIMURIUM, Strain/Indicator: TA97, Metabolic Activation: RAT, LIVER, S-9, AROCLOR 1254 (10 OR 30%), Method: PREINCUBATION",inactive; negative
same,mutagenic call,"Test System: AMES SALMONELLA TYPHIMURIUM, Strain/Indicator: TA98, Metabolic Activation: HAMSTER, LIVER, S-9, AROCLOR 1254 (10 OR 30%), Method: PREINCUBATION",inactive; negative
same,mutagenic call,"Test System: AMES SALMONELLA TYPHIMURIUM, Strain/Indicator: TA98, Metabolic Activation: RAT, LIVER, S-9, AROCLOR 1254 (10 OR 30%), Method: PREINCUBATION",inactive; negative
same,mutagenic call,"Test System: AMES SALMONELLA TYPHIMURIUM, Strain/Indicator: TA98, Metabolic Activation: RAT, LIVER, S-9, AROCLOR 1254, Method: PREINCUBATION",inactive; negative
same,mutagenic call,"Test System: AMES SALMONELLA TYPHIMURIUM, Strain/Indicator: TA98, Metabolic Activation: RAT, LIVER, S-9, KC 500, Method: PREINCUBATION",inactive; negative
same,mutagenic call,"Test System: AMES SALMONELLA TYPHIMURIUM, Strain/Indicator: TA98, Metabolic Activation: RAT, LIVER, S-9, PHENOBARBITAL AND BETA-NAPHTHOFLAVONE, Method: PREINCUBATION",inactive; negative
same,mutagenic call,"Test System: AMES SALMONELLA TYPHIMURIUM, Strain/Indicator: TA100, Metabolic Activation: HAMSTER, LIVER, S-9, AROCLOR 1254 (10 OR 30%), Method: PREINCUBATION",inactive; negative
same,mutagenic call,"Test System: AMES SALMONELLA TYPHIMURIUM, Strain/Indicator: TA100, Metabolic Activation: RAT, LIVER, S-9, AROCLOR 1254 (10 OR 30%), Method: PREINCUBATION",inactive; negative
same,mutagenic call,"Test System: AMES SALMONELLA TYPHIMURIUM, Strain/Indicator: TA100, Metabolic Activation: RAT, LIVER, S-9, AROCLOR 1254, Method: PREINCUBATION",inactive; negative
same,mutagenic call,"Test System: AMES SALMONELLA TYPHIMURIUM, Strain/Indicator: TA100, Metabolic Activation: RAT, LIVER, S-9, KC 500, Method: PREINCUBATION",inactive; negative
same,mutagenic call,"Test System: AMES SALMONELLA TYPHIMURIUM, Strain/Indicator: TA100, Metabolic Activation: RAT, LIVER, S-9, PHENOBARBITAL AND BETA-NAPHTHOFLAVONE, Method: PREINCUBATION",inactive; negative
same,mutagenic call,"Test System: AMES SALMONELLA TYPHIMURIUM, Strain/Indicator: TA102, Metabolic Activation: NONE, Method: PREINCUBATION",inactive; negative
same,mutagenic call,"Test System: AMES SALMONELLA TYPHIMURIUM, Strain/Indicator: TA102, Metabolic Activation: RAT, LIVER, S-9, PHENOBARBITAL AND BETA-NAPHTHOFLAVONE, Method: PREINCUBATION",inactive; negative
same,mutagenic call,[4],inactive; negative
same,mutagenic call,"Test System: AMES SALMONELLA TYPHIMURIUM, Strain/Indicator: TA104, Metabolic Activation: RAT, LIVER, S-9, PHENOBARBITAL AND BETA-NAPHTHOFLAVONE, Method: PREINCUBATION",inactive; negative
same,mutagenic call,"Test System: AMES SALMONELLA TYPHIMURIUM, Strain/Indicator: TA1535, Metabolic Activation: HAMSTER, LIVER, S-9, AROCLOR 1254 (10 OR 30%), Method: PREINCUBATION",inactive; negative
same,mutagenic call,"Test System: AMES SALMONELLA TYPHIMURIUM, Strain/Indicator: TA1535, Metabolic Activation: RAT, LIVER, S-9, AROCLOR 1254 (10 OR 30%), Method: PREINCUBATION",inactive; negative
same,mutagenic call,"Test System: AMES SALMONELLA TYPHIMURIUM, Strain/Indicator: TA1535, Metabolic Activation: RAT, LIVER, S-9, AROCLOR 1254, Method: PREINCUBATION",inactive; negative
same,mutagenic call,"Test System: AMES SALMONELLA TYPHIMURIUM, Strain/Indicator: TA1535, Metabolic Activation: RAT, LIVER, S-9, KC 500, Method: PREINCUBATION",inactive; negative
same,mutagenic call,"Test System: AMES SALMONELLA TYPHIMURIUM, Strain/Indicator: TA1535, Metabolic Activation: RAT, LIVER, S-9, PHENOBARBITAL AND BETA-NAPHTHOFLAVONE, Method: PREINCUBATION",inactive; negative
same,mutagenic call,"Test System: AMES SALMONELLA TYPHIMURIUM, Strain/Indicator: TA1537, Metabolic Activation: HAMSTER, LIVER, S-9, AROCLOR 1254 (30%), Method: PREINCUBATION",inactive; negative
same,mutagenic call,"Test System: AMES SALMONELLA TYPHIMURIUM, Strain/Indicator: TA1537, Metabolic Activation: RAT, LIVER, S-9, AROCLOR 1254 (30%), Method: PREINCUBATION",inactive; negative
same,mutagenic call,"Test System: AMES SALMONELLA TYPHIMURIUM, Strain/Indicator: TA1537, Metabolic Activation: RAT, LIVER, S-9, AROCLOR 1254, Method: PREINCUBATION",inactive; negative
same,mutagenic call,"Test System: AMES SALMONELLA TYPHIMURIUM, Strain/Indicator: TA1537, Metabolic Activation: RAT, LIVER, S-9, KC 500, Method: PREINCUBATION",inactive; negative
same,mutagenic call,"Test System: AMES SALMONELLA TYPHIMURIUM, Strain/Indicator: TA1537, Metabolic Activation: RAT, LIVER, S-9, PHENOBARBITAL AND BETA-NAPHTHOFLAVONE, Method: PREINCUBATION",inactive; negative
same,mutagenic call,"Test System: AMES SALMONELLA TYPHIMURIUM, Strain/Indicator: TA1538, Metabolic Activation: NONE, Method: PREINCUBATION",inactive; negative
same,mutagenic call,"Test System: AMES SALMONELLA TYPHIMURIUM, Strain/Indicator: TA1538, Metabolic Activation: RAT, LIVER, S-9, AROCLOR 1254, Method: PREINCUBATION",inactive; negative
same,mutagenic call,"Test System: AMES SALMONELLA TYPHIMURIUM, Strain/Indicator: TA1538, Metabolic Activation: RAT, LIVER, S-9, KC 500, Method: PREINCUBATION",inactive; negative
same,mutagenic call,"Test System: E. COLI, Strain/Indicator: WP2UVRA/PKM101, Metabolic Activation: NONE, Method: PREINCUBATION",inactive; negative
same,mutagenic call,"Test System: E. COLI, Strain/Indicator: WP2UVRA/PKM101, Metabolic Activation: RAT, LIVER, S-9, PHENOBARBITAL AND BETA-NAPHTHOFLAVONE, Method: PREINCUBATION",inactive; negative
same,mutagenic call,[3],inactive; negative
same,mutagenic call,"Test System: E. COLI, Strain/Indicator: WP2UVRA, Metabolic Activation: NONE, Method: PREINCUBATION",inactive; negative
same,mutagenic call,"Test System: E. COLI, Strain/Indicator: WP2 UVRA, Metabolic Activation: RAT, LIVER, S-9, KC 500, Method: PREINCUBATION",inactive; negative
same,mutagenic call,"Test System: E. COLI, Strain/Indicator: WP2UVRA, Metabolic Activation: RAT, LIVER, S-9, PHENOBARBITAL AND BETA-NAPHTHOFLAVONE, Method: PREINCUBATION",inactive; negative
same,mutagenic call,"Test System: MOUSE LYMPHOMA, Strain/Indicator: L5178Y (TK+/TK-), Metabolic Activation: NONE, Method: SUSPENSION/PLATE",inactive; negative
same,mutagenic call,"Test System: MOUSE LYMPHOMA, Strain/Indicator: L5178Y (TK+/TK-), Metabolic Activation: RAT, LIVER, S-9, AROCLOR 1242 AND AROCLOR 1254 (2:1), Method: SUSPENSION/PLATE",inactive; negative
Cc1ccccc1C(=O)Cl,mutagenic call,[1],inactive; negative
same,mutagenic call,"Test System: AMES SALMONELLA TYPHIMURIUM, Strain/Indicator: TA98, Metabolic Activation: RAT LIVER S-9, PCB, Method: PREINCUBATION",active; positive
same,mutagenic call,[2],inactive; negative
same,mutagenic call,"Test System: AMES SALMONELLA TYPHIMURIUM, Strain/Indicator: TA100, Metabolic Activation: RAT LIVER S-9, PCB, Method: PREINCUBATION",active; positive
same,mutagenic call,[4],inactive; negative
same,mutagenic call,"Test System: AMES SALMONELLA TYPHIMURIUM, Strain/Indicator: TA104, Metabolic Activation: RAT LIVER S-9, PCB, Method: PREINCUBATION",active; positive
same,mutagenic call,"Test System: E.COLI, Strain/Indicator: WP2 UVRA, Metabolic Activation: NONE, Method: PREINCUBATION",active; positive
same,mutagenic call,"Test System: E.COLI, Strain/Indicator: WP2 UVRA, Metabolic Activation: RAT LIVER S-9, PCB, Method: PREINCUBATION",active; positive
